{"source": "patent US20120010161A1", "about": "“NOVEL AZAPEPTIDE OR AZAPEPTIDOMIMETIC COMPOUNDS INHIBITING BCRP AND/OR P-GP” (CENTRE NATIONAL DE LA RECHERCHE SCIENTIFIQUE, priority 2009, published 2012)", "key": {"ABCB1 [1]": {"biological_target": "T1, ABCB1 (Homo sapiens, UniProt P08183)", "T1 sequence (P08183 whole entry)": "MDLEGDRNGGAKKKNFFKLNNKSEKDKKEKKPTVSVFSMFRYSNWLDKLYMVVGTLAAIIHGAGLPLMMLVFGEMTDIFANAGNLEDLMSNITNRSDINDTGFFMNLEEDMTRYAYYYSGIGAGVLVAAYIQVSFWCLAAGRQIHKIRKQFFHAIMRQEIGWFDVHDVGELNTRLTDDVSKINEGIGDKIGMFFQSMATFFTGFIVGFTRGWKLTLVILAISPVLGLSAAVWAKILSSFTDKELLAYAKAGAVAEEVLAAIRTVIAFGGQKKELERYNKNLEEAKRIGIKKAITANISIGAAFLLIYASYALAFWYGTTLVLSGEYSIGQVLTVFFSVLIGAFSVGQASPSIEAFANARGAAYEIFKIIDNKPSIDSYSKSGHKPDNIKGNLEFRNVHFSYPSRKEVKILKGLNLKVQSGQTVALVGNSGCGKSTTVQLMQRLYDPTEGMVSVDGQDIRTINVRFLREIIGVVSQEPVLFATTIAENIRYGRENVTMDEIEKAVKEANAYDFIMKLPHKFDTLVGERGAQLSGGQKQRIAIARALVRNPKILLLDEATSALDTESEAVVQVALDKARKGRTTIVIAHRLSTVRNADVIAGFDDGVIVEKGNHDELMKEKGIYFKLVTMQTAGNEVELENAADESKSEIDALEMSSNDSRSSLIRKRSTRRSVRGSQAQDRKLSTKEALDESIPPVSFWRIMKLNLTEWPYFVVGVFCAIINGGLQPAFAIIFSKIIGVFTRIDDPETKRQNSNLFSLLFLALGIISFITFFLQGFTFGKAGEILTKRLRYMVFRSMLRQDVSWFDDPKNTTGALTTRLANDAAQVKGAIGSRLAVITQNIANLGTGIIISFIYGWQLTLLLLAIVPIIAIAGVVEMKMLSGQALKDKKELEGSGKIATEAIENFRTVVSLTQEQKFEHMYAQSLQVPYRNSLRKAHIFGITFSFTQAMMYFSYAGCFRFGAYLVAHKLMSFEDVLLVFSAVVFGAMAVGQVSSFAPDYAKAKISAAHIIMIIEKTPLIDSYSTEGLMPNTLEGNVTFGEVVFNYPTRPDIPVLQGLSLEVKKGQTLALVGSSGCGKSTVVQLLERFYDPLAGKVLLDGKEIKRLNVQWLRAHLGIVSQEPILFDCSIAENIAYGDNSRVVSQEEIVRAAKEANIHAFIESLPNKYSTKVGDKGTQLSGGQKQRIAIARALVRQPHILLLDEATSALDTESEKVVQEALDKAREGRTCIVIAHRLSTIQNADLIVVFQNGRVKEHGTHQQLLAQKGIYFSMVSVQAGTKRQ", "details": "cited from earlier work"}, "ABCC1": {"biological_target": "ABCC1 (Homo sapiens, UniProt P33527)", "sequence (P33527 whole entry)": "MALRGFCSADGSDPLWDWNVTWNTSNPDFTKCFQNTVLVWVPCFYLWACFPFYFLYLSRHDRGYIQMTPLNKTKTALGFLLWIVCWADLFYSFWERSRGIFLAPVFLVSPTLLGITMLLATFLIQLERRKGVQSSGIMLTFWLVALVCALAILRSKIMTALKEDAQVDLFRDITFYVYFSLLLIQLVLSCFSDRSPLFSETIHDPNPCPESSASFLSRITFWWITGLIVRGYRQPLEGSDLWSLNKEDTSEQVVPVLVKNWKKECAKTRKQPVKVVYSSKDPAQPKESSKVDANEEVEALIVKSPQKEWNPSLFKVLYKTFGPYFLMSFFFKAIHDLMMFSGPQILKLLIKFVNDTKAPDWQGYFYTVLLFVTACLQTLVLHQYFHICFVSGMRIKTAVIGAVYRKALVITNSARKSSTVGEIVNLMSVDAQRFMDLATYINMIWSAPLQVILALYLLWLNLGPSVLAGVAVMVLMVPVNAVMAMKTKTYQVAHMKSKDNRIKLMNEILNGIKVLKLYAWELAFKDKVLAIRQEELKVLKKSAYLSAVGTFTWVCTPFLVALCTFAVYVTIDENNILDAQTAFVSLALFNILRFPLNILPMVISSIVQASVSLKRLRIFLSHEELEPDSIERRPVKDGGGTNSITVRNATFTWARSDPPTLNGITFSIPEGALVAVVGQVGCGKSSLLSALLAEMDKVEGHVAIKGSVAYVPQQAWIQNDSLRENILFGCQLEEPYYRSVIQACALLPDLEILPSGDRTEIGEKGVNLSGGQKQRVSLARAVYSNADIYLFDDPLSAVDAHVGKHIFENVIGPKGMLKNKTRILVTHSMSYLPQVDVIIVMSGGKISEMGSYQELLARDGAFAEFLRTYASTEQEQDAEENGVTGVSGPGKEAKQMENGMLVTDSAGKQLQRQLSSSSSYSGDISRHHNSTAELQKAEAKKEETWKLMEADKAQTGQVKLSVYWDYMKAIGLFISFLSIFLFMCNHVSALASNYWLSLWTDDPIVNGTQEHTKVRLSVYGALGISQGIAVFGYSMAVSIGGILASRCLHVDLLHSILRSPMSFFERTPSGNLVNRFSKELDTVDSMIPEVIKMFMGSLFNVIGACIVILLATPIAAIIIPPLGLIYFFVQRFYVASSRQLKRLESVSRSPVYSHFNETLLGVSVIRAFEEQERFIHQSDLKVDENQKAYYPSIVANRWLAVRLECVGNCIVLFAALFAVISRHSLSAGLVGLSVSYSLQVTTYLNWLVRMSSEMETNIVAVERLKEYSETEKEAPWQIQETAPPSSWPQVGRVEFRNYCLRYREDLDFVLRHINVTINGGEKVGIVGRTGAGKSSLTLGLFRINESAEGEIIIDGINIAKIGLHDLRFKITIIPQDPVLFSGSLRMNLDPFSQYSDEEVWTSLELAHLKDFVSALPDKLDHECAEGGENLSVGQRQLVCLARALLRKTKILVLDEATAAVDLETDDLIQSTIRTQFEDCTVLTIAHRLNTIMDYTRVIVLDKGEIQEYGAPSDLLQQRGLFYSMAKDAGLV", "details": "cited from earlier work"}, "ABCG2": {"biological_target": "T2, ABCG2 (Homo sapiens, UniProt Q9UNQ0)", "T2 sequence (Q9UNQ0 1-655)": "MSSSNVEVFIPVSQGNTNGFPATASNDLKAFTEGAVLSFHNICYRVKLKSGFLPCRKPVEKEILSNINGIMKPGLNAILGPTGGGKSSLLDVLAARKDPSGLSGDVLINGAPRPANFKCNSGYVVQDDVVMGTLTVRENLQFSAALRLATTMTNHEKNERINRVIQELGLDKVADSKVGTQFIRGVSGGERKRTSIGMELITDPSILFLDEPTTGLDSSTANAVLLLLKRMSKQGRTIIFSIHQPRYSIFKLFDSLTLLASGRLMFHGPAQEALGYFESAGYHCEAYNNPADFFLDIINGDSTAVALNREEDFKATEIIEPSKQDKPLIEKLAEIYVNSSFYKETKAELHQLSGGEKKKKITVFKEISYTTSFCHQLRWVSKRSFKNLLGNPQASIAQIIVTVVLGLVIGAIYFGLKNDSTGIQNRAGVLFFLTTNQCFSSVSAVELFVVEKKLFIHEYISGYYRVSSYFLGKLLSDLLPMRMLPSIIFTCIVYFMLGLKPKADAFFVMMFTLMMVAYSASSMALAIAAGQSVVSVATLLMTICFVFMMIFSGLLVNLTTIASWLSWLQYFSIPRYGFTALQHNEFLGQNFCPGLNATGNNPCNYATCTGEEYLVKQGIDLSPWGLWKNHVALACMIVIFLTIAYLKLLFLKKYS", "details": "cited from earlier work"}, "ABCB1 [2]": {"biological_target": "T1, ABCB1", "assay": "Type of inhibition: daunorubicin efflux at varied substrate and inhibitor concentrations (FIG. 11)", "type": "cell-based", "set-up": "expressed in transfected cells; host or cells: NIH3T3 transfected with pHaMDR1/A", "details": "daunorubicin efflux as a function of its concentration"}, "BCRP/ABCG2": {"biological_target": "T3, BCRP/ABCG2 (Homo sapiens, UniProt Q9UNQ0)", "T3 construct": "expressed in transfected cells; host or cells: HEK-293 transfected with pcDNA3.1-ABCG2", "T3 sequence (Q9UNQ0 1-655)": "T2 sequence (Q9UNQ0 1-655)", "assay": "Flow cytometry: mitoxantrone efflux induced by ABCG2 in transfected HEK-293 cells", "type": "cell-based", "description": "(§1) Cell cultures. The human […] HEK-293 transfected with the vector pcDNA3.1 including or not the gene encoding ABCG2 (Robey, R. W., Honjo, Y., Morisaki, K., Nadjem, T. A., Runge, S., Risbood, M., Poruchynsky, M. S., Bates, S. E. 2003, Br. J. Cancer 89(10) 1971-1978) was used to test the efficacy of the products on ABCG2. The newborn hamster kidney cell line BHK21 either natural (negative control) or transfected with the vector pNUT-MRP/His expressing the gene encoding ABCC1 (Chang, Xiu-Bao, Hou, Yue-Xian, Riordan, John R. 1997, J. Biol. Chem. 272(49) 30962-30968) was used to test the efficacy of the products on ABCC1. The cell line NIH3T3 natural or transfected with the vector pHaMDR1/A expressing ABCB1 (Cardarelli, Carol O., Aksentijevich, Ivan, Pastan, Ira, Gottesman, Michael M. 1995 Cancer Res. 55 1086-1091) was used to test the efficacy of the compounds on ABCB1. The various cell types are cultured according to the protocols described previously (Robey, R. W., Honjo, Y., Morisaki, K., Nadjem, T. A., Runge, S., Risbood, M., Poruchynsky, M. S., Bates, S. E. 2003, Br. J. Cancer 89(10) 1971-1978 for the line HEK293, Chang, Xiu-Bao, Hou, Yue-Xian, Riordan, John R. 1997, J. Biol. Chem. 272(49) 30962-30968 for the line BHK21 and Cardarelli, Carol O., Aksentijevich, Ivan, Pastan, Ira, Gottesman, Michael M. 1995 Cancer Res. 55 1086-1091 for the line NIH3T3).\n(§2) FIG. 1 schematically illustrates an efflux of substrate induced by a typical ABC transporter. The substrates S, such as mitoxantrone effluxed with ABCG2 and ABCB1 or daunorubicin effluxed with ABCC1, are accumulated in the cells and expelled by the transporter T, leading to a decrease in intracellular fluorescence. In the case of accumulation of the product, typically by inhibition of the efflux protein, the intracellular fluorescence increases.\n(§3) Flow cytometry. Transfected or untransfected HEK-293 and BHK-21 cells are in a first stage placed in contact with substrate (5 μM mitoxantrone or 1 μM daunorubicin depending on the transporter). The substrate is accumulated for 30 minutes at 37° C. in the presence or absence of varied concentrations of the test molecules, at 0.5% of DMSO final. After washing with PBS, the cells are incubated in medium containing the same concentrations of test molecules as previously, for 1 hour at 37° C. The drug intracellular fluorescence is measured with a FACscan flow cytometer (Becton Dickinson, Mountain View, Calif.). The fluorescent substrates are excited at 488 nm; the fluorescence emission of mitoxantrone (MTX) is measured at 650 nm and that of daunorubicin is measured at 530 nm. The efficacy of the test molecules is estimated by means of equation 1:\n(§4) % efficacy=100×(FA−FBG)/(FC−FBG),\n(§5) in which: • FA corresponds to the intracellular level of substrate measured in the cells overexpressing the transporter T (corresponding to the lowest level of fluorescence in the absence of inhibitor), • FC corresponds to the fluorescence in the control cells not expressing the test transporter. This is thus the maximum accumulation of substrate in the cells), • FBG corresponds to the fluorescence measured in the absence of substrate and in the presence of inhibitor.\n(§6) The compounds presented in TABLES 2 to 5 were tested by flow cytometry on mammalian cell lines selectively expressing the efflux proteins ABCG2, ABCB1 or ABCC1, as described previously.\n(§7) The mitoxantrone efflux induced by ABCG2 or ABCB1 and the daunorubicin efflux induced by ABCC1 are estimated by flow cytometry, as described previously, at 10 μM of each test compound, and then at 2 μM for the compounds showing at least 80% efficacy at 10 μM. The concentration inducing 50% inhibition (IC50) was estimated for the most efficient aza derivatives. The values are obtained by three independent experiments and were adjusted using the SigmaPlot software."}, "P-gp/ABCB1": {"biological_target": "T4, P-gp/ABCB1 (Homo sapiens, UniProt P08183)", "T4 construct": "expressed in transfected cells; host or cells: NIH3T3 transfected with pHaMDR1/A", "T4 sequence (P08183 whole entry)": "as the sequence (P08183 whole entry) above", "assay": "Flow cytometry: mitoxantrone efflux induced by ABCB1 in transfected NIH3T3 cells", "type": "cell-based", "description": "as §1, §2, §3, §4, §5, §6, §7"}}, "data": [{"smiles": "COc1cc2c(cc1OC)CN(CCc1ccc(NC(=O)c3cccc4c(=O)c5cccc(OC)c5[nH]c34)cc1)CC2", "note": "[GF 120918, elacridar]", "values": [{"measurement": "active or inactive on ABCB1", "setting": "ABCB1 [1]", "value": "+"}, {"measurement": "active or inactive on ABCC1", "setting": "ABCC1", "value": "−"}, {"measurement": "active or inactive on ABCG2", "setting": "ABCG2", "value": "+"}]}, {"smiles": "O[C@@H](COc1cccc2ncccc12)CN1CCN([C@@H]2c3ccccc3[C@@H]3[C@H](c4ccccc42)C3(F)F)CC1", "note": "[Ly335979, zosuquidar]", "values": [{"measurement": "active or inactive on ABCC1", "setting": "ABCC1", "value": "−"}, {"measurement": "active or inactive on ABCG2", "setting": "ABCG2", "value": "−"}]}, {"smiles": "COC(=O)c1cnc2n1CCc1ccccc1C2=C1CCN(CCc2ccc(OCc3ccc4ccccc4n3)cc2)CC1", "note": "[R101933, laniquidar]", "values": [{"measurement": "active or inactive on ABCB1", "setting": "ABCB1 [1]", "value": "+"}]}, {"smiles": "C/C=C/C[C@@H](C)C(=O)[C@H]1C(=O)N[C@@H](C(C)C)C(=O)N(C)CC(=O)N(C)[C@@H](CC(C)C)C(=O)N[C@@H](C(C)C)C(=O)N(C)[C@@H](CC(C)C)C(=O)N[C@@H](C)C(=O)N[C@H](C)C(=O)N(C)[C@@H](CC(C)C)C(=O)N(C)[C@@H](CC(C)C)C(=O)N(C)[C@@H](C(C)C)C(=O)N1C", "note": "[PSC833, valspodar]", "values": [{"measurement": "active or inactive on ABCB1", "setting": "ABCB1 [1]", "value": "+"}, {"measurement": "active or inactive on ABCG2", "setting": "ABCG2", "value": "−"}]}, {"smiles": "CC(C)(C)OC(=O)NN(C(=O)N[C@@H](CCCCNC(=O)OCc1ccccc1)C(=O)OC(C)(C)C)c1ccc(C(=O)OCc2ccccc2)cc1", "note": "[IA.3, tert-Butyl ester of (2S)-6-(benzyloxycarbonylamino)-2-[1-(4′-(benzyloxycarbonyl)phenyl)-2-(tert-butoxycarbonyl)hydrazino-carbonylamino]hexanoic acid]", "values": [{"measurement": "type of inhibition of ABCB1", "setting": "ABCB1 [2]", "value": "inhibition of noncompetitive type"}, {"measurement": "selectivity toward one or other of the proteins BCRP or P-gp", "setting": "BCRP/ABCG2; BCRP versus P-gp", "value": "selective"}, {"measurement": "inhibition at 10 μM", "setting": "BCRP/ABCG2; human, HEK-293 cells transfected with ABCG2 (vector pcDNA3.1), probe mitoxantrone (5 μM), 10 μM compound, mitoxantrone efflux, HEK-293 cells, three independent experiments, read-out: BCRP/ABCG2 % efficacy 10 μM", "value": 38, "unit": "%"}, {"measurement": "melting point", "value": 106, "unit": "°C"}, {"measurement": "IC50", "setting": "P-gp/ABCB1", "value": 330, "unit": "nM"}, {"measurement": "inhibition at 2 μM", "setting": "P-gp/ABCB1; human, NIH3T3 cells transfected with ABCB1 (vector pHaMDR1/A), probe mitoxantrone (5 μM), 2 μM compound, read-out: P-gp/ABCB1 % efficacy 2 μM", "value": "90 ± 7", "unit": "%"}, {"measurement": "inhibition at 10 μM", "setting": "P-gp/ABCB1; human, NIH3T3 cells transfected with ABCB1 (vector pHaMDR1/A), probe mitoxantrone (5 μM), 10 μM compound, read-out: P-gp/ABCB1 % efficacy 10 μM", "value": "98 ± 14", "unit": "%"}]}, {"smiles": "CCOC/C=C/c1ccc(-c2nc(-c3ccc(NC(C)C)cc3)c(-c3ccc(NC(C)C)cc3)[nH]2)cc1", "note": "[ONT-093, ontogen]", "values": [{"measurement": "active or inactive on ABCB1", "setting": "ABCB1 [1]", "value": "+"}, {"measurement": "active or inactive on ABCC1", "setting": "ABCC1", "value": "−"}]}, {"smiles": "COc1cc2c(cc1OC)CN(CCc1ccc(NC(=O)c3cc(OC)c(OC)cc3NC(=O)c3cnc4ccccc4c3)cc1)CC2", "note": "[XR9576, tariquidar]", "values": [{"measurement": "active or inactive on ABCB1", "setting": "ABCB1 [1]", "value": "+"}, {"measurement": "active or inactive on ABCG2", "setting": "ABCG2", "value": "+"}]}, {"smiles": "COc1cc(C(=O)C(=O)N2CCCC[C@H]2C(=O)OC(CCCc2cccnc2)CCCc2cccnc2)cc(OC)c1OC", "note": "[VX-710, biricodar]", "values": [{"measurement": "active or inactive on ABCB1", "setting": "ABCB1 [1]", "value": "+"}, {"measurement": "active or inactive on ABCC1", "setting": "ABCC1", "value": "+"}, {"measurement": "active or inactive on ABCG2", "setting": "ABCG2", "value": "+"}]}]}
